{"source": "patent US20070287699A1", "about": "“ANTIVIRAL AGENTS” (ViroBay, Inc., priority 2006, published 2007)", "data": [{"test_system": "HCV replicon RNA replication in human Huh7 hepatoma cells", "assay": "HCV replicon assay (activity levels from either or both of HCV replicon assay 1, Huh7/Clone A RT-qPCR, and assay 2, Huh7 ET luc-ubi-neo/ET)", "assay_type": "cell-based, Hepatitis C virus (HCV)", "conditions": "Hepatitis C virus, Huh-7, either or both HCV replicon assays: Huh7/Clone A, 48 hours, 72 hours, Luc activity or RT-PCR, read-out: inhibit HCV replication at IC50 levels or estimated IC50 levels", "description": "(§1) The HCV replicon assay is a cell-culture system that mimics in vivo HCV replication and provides a system to study HCV replication in vitro. It was created by transfecting cloned viral RNA derived from a consensus HCV genomic sequence into human Huh7 hepatoma cells that are semi-permissive for viral RNA production (Lohmann V., Korner F., Koch J.-O., Herian U., Theilmann L. and Bartenschlager R. (1999). Replication of subgenomic Hepatitis C virus RNAs in a hepatoma cell line. Science 285, 110-113 and Blight K. J., Kolykhalov A. A. and Rice C. M. (2000). Efficient initiation of HCV RNA Replication in cell culture. Science 290, […]). These transfected cell lines contain a subgenomic HCV RNA genome that includes (1) the HCV 5′NTR fused to 12 amino acids of the capsid coding region, (2) the neomycin phosphotransferase gene (Neo) as a selectable marker, (3) the internal ribosome entry site (IRES) from encephalomyocarditis virus (EMCV) that directs translation of HCV non-structural proteins (variously NS2 or NS3 to NS5B), and (4) the 3′ NTR. Replicon-containing cells autonomously and persistently replicate HCV RNA that can be measured quantitatively by real-time qPCR. Therefore, the replicon system facilitates quantitative assessment of anti-viral activity by monitoring changes in HCV RNA replication in a cell-based assay.\n(§2) HCV replicon-containing cells (Huh7/Clone A) were routinely maintained in Clone A growth medium (DMEM medium [Invitrogen], supplemented with 10% Fetal Bovine Serum, 1% Non Essential Amino Acids and 1 g/L G418). Test compounds were dissolved in dimethyl sulfoxide (DMSO) to make 200× stock solutions for all doses prior to treatment.\n(§3) For the HCV replicon assay, Huh7/Clone A cells were trypsinized from culture flasks, seeded in 1 ml of Clone A growth medium without G418 at 4×10^4 cells per well in 24-well plates and incubated at 37° C. in a humidified CO2 (5%) incubator overnight. Following overnight incubation, compound solutions were added into wells in the same volume (5 μl of 200× compound stock per well) to give a final DMSO concentration of 0.5%. Three wells on each plate supplemented with 5 μl of DMSO served as untreated controls. For IC50 determinations, compounds were tested at 7 serial dilutions in triplicates from the starting stock solutions. The plates were incubated at 37° C. for 48 hours. After incubation, cells were harvested, transferred to 96-well plates, and subjected to total RNA extraction using the RNA Isolation Kit (RNeasy 96, Qiagen) according to the protocol described by the manufacture's RNeasy 96 Handbook (Qiagen).\n(§4) Total RNA eluted in 130 μl of RNase-free dH2O was quantitated by the RiboGreen Assay according to the supplier's protocol (Molecular Probe). Briefly, 5 μl of RNA samples were aliquoted in duplicate to a 96-well black microplate and a 96-well TaqMan Optical plate. RNA samples in the black microplate were mixed with 95 μl of diluted RiboGreen:reagent (1:250 dilution in TE buffer) and sample fluorescence was measured using a fluorescence microplate reader at standard fluorescein wavelengths (excitation ˜480 nm, emission ˜520 nm). Ribosomal RNA (Molecular Probe) was used as standard.\n(§5) TaqMan quantitative PCR (RT-qPCR) was used to quantitate the amount of HCV replicon RNA in each sample. The RT-qPCR reactions were performed in 25 μl on an ABI PRISM 7900 HT Sequence Detection System (Applied Biosystems). The reaction mixture contained 5 μl of total RNA (10-100 ng), 1× TaqMan Buffer A (Applied Biosystems), 5.5 mM MgCl2, 1.2 mM dNTP mix, 0.625 U of AmpliTaq Gold (Applied Biosystems), 5 U of MMLV reverse transcriptase (Promega), 5 U of rRNasin (Promega), 300 nM each of the forward and reverse primers, and 100 nM TaqMan MGB probe. Primers and probe were designed to hybridize to a portion of the neomycin resistance gene (neo) in the replicon and the sequences are as follows: forward primer 5′-GGCTACCTGCCCATTCGA-3′; reverse primer 5′-CCGGCTTCCATCCGAGTAC-3′; MGB probe 5′-CCACCAAGCGAAACA-3′. […]", "units": {"IC50": "nM"}, "values": [{"smiles": "O=c1c(-c2noc(Cc3ccccc3)n2)cn(Cc2ccc(Cl)cc2)c2cc(N3CCNCC3)c(F)cc12", "note": "[Compound 25, 3-(5-benzyl-[1,2,4]oxadiazol-3-yl)-1-(4-chloro-benzyl)-6-fluoro-7-piperazin-1-yl-1H-quinolin-4-one]", "IC50": "< 2000"}, {"smiles": "O=c1c(-c2noc(Cc3ccccc3)n2)cn(Cc2ccc(Cl)cc2)c2cc(N3CCC(O)CC3)c(F)cc12", "note": "[Compound 26, 3-(5-benzyl-[1,2,4]oxadiazol-3-yl)-1-(4-chloro-benzyl)-6-fluoro-7-(4-hydroxy-piperidin-1-yl)-1H-quinolin-4-one]", "IC50": "> 10000"}, {"smiles": "CC(=O)N1CCN(c2cc3c(cc2F)c(=O)c(-c2noc(Cc4ccccc4)n2)cn3Cc2ccc(Cl)cc2)CC1", "note": "[Compound 27, 7-(4-acetyl-piperazin-1-yl)-3-(5-benzyl-[1,2,4]oxadiazol-3-yl)-1-(4-chloro-benzyl)-6-fluoro-1H-quinolin-4-one]", "IC50": "< 2000"}, {"smiles": "CN1CCN(c2cc3c(cc2F)c(=O)c(-c2noc(Cc4ccc(F)cc4)n2)cn3Cc2ccc(Cl)cc2)CC1", "note": "[Compound 28, 1-(4-chloro-benzyl)-6-fluoro-3-[5-(4-fluoro-benzyl)-[1,2,4]oxadiazol-3-yl]-7-(4-methyl-piperazin-1-yl)-1H-quinolin-4-one]", "IC50": "< 2000"}, {"smiles": "CN1CCN(c2cc3c(cc2F)c(=O)c(-c2noc(C(CC(=O)O)c4ccccc4)n2)cn3Cc2ccc(Cl)cc2)CC1", "note": "(stereo not drawn) [Compound 31, 3-{3-[1-(4-chloro-benzyl)-6-fluoro-7-(4-methyl-piperazin-1-yl)-4-oxo-1,4-dihydro-quinolin-3-yl]-[1,2,4]oxadiazol-5-yl}-3-phenyl-propionic acid]", "IC50": "> 10000"}, {"smiles": "CN1CCN(c2cc3c(cc2F)c(=O)c(-c2noc(Cc4ccc(F)cc4F)n2)cn3Cc2ccc(Cl)cc2)CC1", "note": "[Compound 32, 1-(4-chloro-benzyl)-3-[5-(2,4-difluoro-benzyl)-[1,2,4]oxadiazol-3-yl]-6-fluoro-7-(4-methyl-piperazin-1-yl)-1H-quinolin-4-one]", "IC50": "> 10000"}, {"smiles": "CN1CCN(c2cc3c(cc2F)c(=O)c(-c2noc(Cc4c(F)cccc4F)n2)cn3Cc2ccc(Cl)cc2)CC1", "note": "[Compound 33, 1-(4-chloro-benzyl)-3-[5-(2,6-difluoro-benzyl)-[1,2,4]oxadiazol-3-yl]-6-fluoro-7-(4-methyl-piperazin-1-yl)-1H-quinolin-4-one]", "IC50": "< 10000"}, {"smiles": "CN1CCN(c2cc3c(cc2F)c(=O)c(-c2noc(Cc4ccc(F)cc4)n2)cn3Cc2ccc(Cl)cc2F)CC1", "note": "[Compound 34, 1-(4-chloro-2-fluoro-benzyl)-6-fluoro-3-[5-(4-fluoro-benzyl)-[1,2,4]oxadiazol-3-yl]-7-(4-methyl-piperazin-1-yl)-1H-quinolin-4-one]", "IC50": "< 2000"}, {"smiles": "CN1CCN(c2cc3c(cc2F)c(=O)c(-c2noc(Cc4ccccc4)n2)cn3Cc2ccc(C(F)(F)F)cc2)CC1", "note": "[Compound 36, 3-(5-benzyl-[1,2,4]oxadiazol-3-yl)-6-fluoro-7-(4-methyl-piperazin-1-yl)-1-(4-trifluoromethyl-benzyl)-1H-quinolin-4-one]", "IC50": "< 2000"}, {"smiles": "CN1CCN(c2cc3c(cc2F)c(=O)c(-c2noc(Cc4ccc(F)cc4)n2)cn3Cc2ccc(C(F)(F)F)cc2)CC1", "note": "[Compound 37, 6-fluoro-3-[5-(4-fluoro-benzyl)-[1,2,4]oxadiazol-3-yl]-7-(4-methyl-piperazin-1-yl)-1-(4-trifluoromethyl-benzyl)-1H-quinolin-4-one]", "IC50": "< 2000"}, {"smiles": "O=c1c(-c2noc(Cc3ccccc3)n2)cn(Cc2ccc(C(F)(F)F)cc2F)c2cc(N3CCCNCC3)c(F)cc12", "note": "[Compound 38, 3-(5-benzyl-[1,2,4]oxadiazol-3-yl)-7-[1,4]diazepan-1-yl-6-fluoro-1-(2-fluoro-4-trifluoromethyl-benzyl)-1H-quinolin-4-one]", "IC50": "< 500"}]}, {"test_system": "HCV replicon RNA replication in human Huh7 hepatoma cells", "assay": "HCV replicon assay (activity levels from either or both of HCV replicon assay 1, Huh7/Clone A RT-qPCR, and assay 2, Huh7 ET luc-ubi-neo/ET)", "assay_type": "cell-based, Hepatitis C virus (HCV)", "conditions": "either or both HCV replicon assays: Huh7/Clone A, 48 hours, 72 hours, Luc activity or RT-PCR, read-out: inhibit HCV replication at IC50 levels or estimated IC50 levels", "description": "as §1, §2, §3, §4, §5", "units": {"IC50": "nM"}, "values": [{"smiles": "CN1CCN(c2cc3c(cc2F)c(=O)c(-c2noc(Cc4ccccc4)n2)cn3Cc2ccc(C(F)(F)F)cc2F)CC1", "note": "[Compound 35, 3-(5-benzyl-[1,2,4]oxadiazol-3-yl)-6-fluoro-1-(2-fluoro-4-trifluoromethyl-benzyl)-7-(4-methyl-piperazin-1-yl)-1H-quinolin-4-one]", "IC50": "< 2000"}]}]}
